In patent publication US20260130395A1, “Water Dispersible Botanical Compositions” (Aquila Black Limited, priority 2021, published 2026):

Experiment: Stability of cannabinoid compounds and Vitamin E components in Beverage 2 (AB Red) by LCMSMS
Format: physicochemical

## CCCCCc1cc(O)c(C/C=C(\C)CCC=C(C)C)c(O)c1 [CBG, cannabigerol]
Stored at 8° C., 0 days
  Stability of Plant-Derived Cannabinoid Compounds in AB Red: 4.75 µg/mL
Stored at 8° C., 1 days
  Stability of Plant-Derived Cannabinoid Compounds in AB Red: 4.62 µg/mL
Stored at 8° C., 2 days
  Stability of Plant-Derived Cannabinoid Compounds in AB Red: 4.79 µg/mL
Stored at 8° C., 3 days
  Stability of Plant-Derived Cannabinoid Compounds in AB Red: 4.70 µg/mL
Stored at 8° C., 5 days
  Stability of Plant-Derived Cannabinoid Compounds in AB Red: 4.75 µg/mL
Stored at 8° C., 8 days
  Stability of Plant-Derived Cannabinoid Compounds in AB Red: 4.76 µg/mL
Stored at 8° C., 9 days
  Stability of Plant-Derived Cannabinoid Compounds in AB Red: 4.72 µg/mL
Stored at 8° C., 10 days
  Stability of Plant-Derived Cannabinoid Compounds in AB Red: 4.68 µg/mL
Stored at 8° C., 11 days
  Stability of Plant-Derived Cannabinoid Compounds in AB Red: 4.77 µg/mL
Stored at 8° C., 12 days
  Stability of Plant-Derived Cannabinoid Compounds in AB Red: 4.64 µg/mL
Stored at 8° C., 15 days
  Stability of Plant-Derived Cannabinoid Compounds in AB Red: 4.68 µg/mL
Stored at 8° C., 16 days
  Stability of Plant-Derived Cannabinoid Compounds in AB Red: 4.65 µg/mL
Stored at 8° C., 17 days
  Stability of Plant-Derived Cannabinoid Compounds in AB Red: 4.77 µg/mL
Stored at 8° C., 18 days
  Stability of Plant-Derived Cannabinoid Compounds in AB Red: 4.67 µg/mL
Stored at 8° C., 19 days
  Stability of Plant-Derived Cannabinoid Compounds in AB Red: 4.71 µg/mL
Stored at 8° C., 22 days
  Stability of Plant-Derived Cannabinoid Compounds in AB Red: 4.70 µg/mL
Stored at 8° C., 23 days
  Stability of Plant-Derived Cannabinoid Compounds in AB Red: 4.66 µg/mL
Stored at 8° C., 24 days
  Stability of Plant-Derived Cannabinoid Compounds in AB Red: 4.65 µg/mL
Stored at 8° C., 25 days
  Stability of Plant-Derived Cannabinoid Compounds in AB Red: 4.73 µg/mL
Stored at 8° C., 26 days
  Stability of Plant-Derived Cannabinoid Compounds in AB Red: 4.68 µg/mL
Stored at 8° C., 29 days
  Stability of Plant-Derived Cannabinoid Compounds in AB Red: 4.80 µg/mL
Stored at 8° C., 30 days
  Stability of Plant-Derived Cannabinoid Compounds in AB Red: 4.72 µg/mL
Stored at 8° C., 60 days
  Stability of Plant-Derived Cannabinoid Compounds in AB Red: 4.70 µg/mL
Stored at 8° C., 90 days
  Stability of Plant-Derived Cannabinoid Compounds in AB Red: 4.73 µg/mL
Stored at 8° C., 120 days
  Stability of Plant-Derived Cannabinoid Compounds in AB Red: 4.68 µg/mL
Stored at 8° C., 150 days
  Stability of Plant-Derived Cannabinoid Compounds in AB Red: 4.67 µg/mL
Stored at 8° C., 180 days
  Stability of Plant-Derived Cannabinoid Compounds in AB Red: 4.65 µg/mL
Stored at 8° C., 210 days
  Stability of Plant-Derived Cannabinoid Compounds in AB Red: 4.60 µg/mL
Stored at 8° C., 240 days
  Stability of Plant-Derived Cannabinoid Compounds in AB Red: 4.68 µg/mL
Stored at 8° C., 270 days
  Stability of Plant-Derived Cannabinoid Compounds in AB Red: 4.66 µg/mL
Stored at 8° C., 300 days
  Stability of Plant-Derived Cannabinoid Compounds in AB Red: 4.70 µg/mL
Stored at 8° C., 330 days
  Stability of Plant-Derived Cannabinoid Compounds in AB Red: 4.60 µg/mL
Stored at 8° C., 360 days
  Stability of Plant-Derived Cannabinoid Compounds in AB Red: 4.63 µg/mL
Stored at 8° C., 390 days
  Stability of Plant-Derived Cannabinoid Compounds in AB Red: 4.55 µg/mL
Stored at 8° C., 420 days
  Stability of Plant-Derived Cannabinoid Compounds in AB Red: 4.58 µg/mL
Stored at 8° C., 450 days
  Stability of Plant-Derived Cannabinoid Compounds in AB Red: 4.54 µg/mL
Stored at 8° C., 480 days
  Stability of Plant-Derived Cannabinoid Compounds in AB Red: 4.51 µg/mL
Stored at 8° C., 510 days
  Stability of Plant-Derived Cannabinoid Compounds in AB Red: 4.40 µg/mL
Stored at 8° C., 540 days
  Stability of Plant-Derived Cannabinoid Compounds in AB Red: 4.42 µg/mL
Stored at 8° C., 570 days
  Stability of Plant-Derived Cannabinoid Compounds in AB Red: 4.37 µg/mL
Stored at 21-25° C., 0 days
  Stability of Plant-Derived Cannabinoid Compounds in AB Red: 4.75 µg/mL
Stored at 21-25° C., 1 days
  Stability of Plant-Derived Cannabinoid Compounds in AB Red: 4.57 µg/mL
Stored at 21-25° C., 2 days
  Stability of Plant-Derived Cannabinoid Compounds in AB Red: 4.61 µg/mL
Stored at 21-25° C., 3 days
  Stability of Plant-Derived Cannabinoid Compounds in AB Red: 4.71 µg/mL
Stored at 21-25° C., 5 days
  Stability of Plant-Derived Cannabinoid Compounds in AB Red: 4.66 µg/mL
Stored at 21-25° C., 8 days
  Stability of Plant-Derived Cannabinoid Compounds in AB Red: 4.66 µg/mL
Stored at 21-25° C., 9 days
  Stability of Plant-Derived Cannabinoid Compounds in AB Red: 4.74 µg/mL
Stored at 21-25° C., 10 days
  Stability of Plant-Derived Cannabinoid Compounds in AB Red: 4.59 µg/mL
Stored at 21-25° C., 11 days
  Stability of Plant-Derived Cannabinoid Compounds in AB Red: 4.72 µg/mL
Stored at 21-25° C., 12 days
  Stability of Plant-Derived Cannabinoid Compounds in AB Red: 4.62 µg/mL
Stored at 21-25° C., 15 days
  Stability of Plant-Derived Cannabinoid Compounds in AB Red: 4.80 µg/mL
Stored at 21-25° C., 16 days
  Stability of Plant-Derived Cannabinoid Compounds in AB Red: 4.75 µg/mL
Stored at 21-25° C., 17 days
  Stability of Plant-Derived Cannabinoid Compounds in AB Red: 4.63 µg/mL
Stored at 21-25° C., 18 days
  Stability of Plant-Derived Cannabinoid Compounds in AB Red: 4.70 µg/mL
Stored at 21-25° C., 19 days
  Stability of Plant-Derived Cannabinoid Compounds in AB Red: 4.66 µg/mL
Stored at 21-25° C., 22 days
  Stability of Plant-Derived Cannabinoid Compounds in AB Red: 4.71 µg/mL
Stored at 21-25° C., 23 days
  Stability of Plant-Derived Cannabinoid Compounds in AB Red: 4.67 µg/mL
Stored at 21-25° C., 24 days
  Stability of Plant-Derived Cannabinoid Compounds in AB Red: 4.78 µg/mL
Stored at 21-25° C., 25 days
  Stability of Plant-Derived Cannabinoid Compounds in AB Red: 4.56 µg/mL
Stored at 21-25° C., 26 days
  Stability of Plant-Derived Cannabinoid Compounds in AB Red: 4.77 µg/mL
Stored at 21-25° C., 29 days
  Stability of Plant-Derived Cannabinoid Compounds in AB Red: 4.78 µg/mL
Stored at 21-25° C., 30 days
  Stability of Plant-Derived Cannabinoid Compounds in AB Red: 4.73 µg/mL
Stored at 21-25° C., 60 days
  Stability of Plant-Derived Cannabinoid Compounds in AB Red: 4.61 µg/mL
Stored at 21-25° C., 90 days
  Stability of Plant-Derived Cannabinoid Compounds in AB Red: 4.55 µg/mL
Stored at 21-25° C., 120 days
  Stability of Plant-Derived Cannabinoid Compounds in AB Red: 4.61 µg/mL
Stored at 21-25° C., 150 days
  Stability of Plant-Derived Cannabinoid Compounds in AB Red: 4.65 µg/mL
Stored at 21-25° C., 180 days
  Stability of Plant-Derived Cannabinoid Compounds in AB Red: 4.53 µg/mL
Stored at 21-25° C., 210 days
  Stability of Plant-Derived Cannabinoid Compounds in AB Red: 4.63 µg/mL
Stored at 21-25° C., 240 days
  Stability of Plant-Derived Cannabinoid Compounds in AB Red: 4.56 µg/mL
Stored at 21-25° C., 270 days
  Stability of Plant-Derived Cannabinoid Compounds in AB Red: 4.68 µg/mL
Stored at 21-25° C., 300 days
  Stability of Plant-Derived Cannabinoid Compounds in AB Red: 4.47 µg/mL
Stored at 21-25° C., 330 days
  Stability of Plant-Derived Cannabinoid Compounds in AB Red: 4.57 µg/mL
Stored at 21-25° C., 360 days
  Stability of Plant-Derived Cannabinoid Compounds in AB Red: 4.47 µg/mL
Stored at 21-25° C., 390 days
  Stability of Plant-Derived Cannabinoid Compounds in AB Red: 4.57 µg/mL
Stored at 21-25° C., 420 days
  Stability of Plant-Derived Cannabinoid Compounds in AB Red: 4.51 µg/mL
Stored at 21-25° C., 450 days
  Stability of Plant-Derived Cannabinoid Compounds in AB Red: 4.63 µg/mL
Stored at 21-25° C., 480 days
  Stability of Plant-Derived Cannabinoid Compounds in AB Red: 4.44 µg/mL
Stored at 21-25° C., 510 days
  Stability of Plant-Derived Cannabinoid Compounds in AB Red: 4.37 µg/mL
Stored at 21-25° C., 540 days
  Stability of Plant-Derived Cannabinoid Compounds in AB Red: 4.49 µg/mL
Stored at 21-25° C., 570 days
  Stability of Plant-Derived Cannabinoid Compounds in AB Red: 4.36 µg/mL
